The results in this text go back to US10633338B2, “Binding Function 3 (BF3) site compounds as therapeutics and methods for their use” (THE UNIVERSITY OF BRITISH COLUMBIA, priority 2014, dated 2020).

In the first assay the target is T1, androgen receptor (AR) (Homo sapiens, UniProt P10275, T878A).
T1 construct: stably transfected eGFP-expressing LNCaP human prostate cancer cells (LN-ARR2PB-eGFP) containing an androgen responsive probasin-derived promoter; endogenous in cells; host or cells: LNCaP (LN-ARR2PB-eGFP)
T1 sequence (P10275 1-920 T878A): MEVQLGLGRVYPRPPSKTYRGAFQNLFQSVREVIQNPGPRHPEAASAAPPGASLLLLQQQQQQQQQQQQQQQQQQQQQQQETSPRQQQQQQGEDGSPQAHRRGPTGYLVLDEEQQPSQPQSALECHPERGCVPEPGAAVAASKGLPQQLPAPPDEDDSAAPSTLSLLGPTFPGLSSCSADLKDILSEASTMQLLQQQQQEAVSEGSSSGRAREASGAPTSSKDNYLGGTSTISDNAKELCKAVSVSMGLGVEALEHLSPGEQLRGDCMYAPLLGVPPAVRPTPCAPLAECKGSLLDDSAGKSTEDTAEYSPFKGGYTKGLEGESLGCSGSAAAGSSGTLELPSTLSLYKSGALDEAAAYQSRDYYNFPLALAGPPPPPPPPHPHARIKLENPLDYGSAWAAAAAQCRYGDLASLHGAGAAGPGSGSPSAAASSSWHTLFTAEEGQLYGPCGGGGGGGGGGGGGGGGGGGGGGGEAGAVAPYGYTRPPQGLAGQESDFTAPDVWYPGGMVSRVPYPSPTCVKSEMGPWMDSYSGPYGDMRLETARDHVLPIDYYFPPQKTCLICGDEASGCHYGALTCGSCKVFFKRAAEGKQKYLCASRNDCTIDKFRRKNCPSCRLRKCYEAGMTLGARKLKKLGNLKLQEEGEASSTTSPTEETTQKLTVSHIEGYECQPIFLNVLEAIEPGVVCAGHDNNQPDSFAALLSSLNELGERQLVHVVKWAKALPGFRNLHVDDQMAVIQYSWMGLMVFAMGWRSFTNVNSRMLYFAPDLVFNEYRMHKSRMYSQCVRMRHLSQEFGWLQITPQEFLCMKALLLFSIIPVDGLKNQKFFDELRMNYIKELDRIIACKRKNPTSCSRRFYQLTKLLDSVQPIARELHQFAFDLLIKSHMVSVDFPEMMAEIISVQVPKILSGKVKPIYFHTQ
The experiment in a line: eGFP cellular AR transcription assay. The format is cell-based. The following applies: LN-ARR2PBeGFP LNCaP cells, 0.1 nM R1881, 3 days incubation. As to the method:
After 5 days, the cells were plated into a 96-well plate (35,000 cells/well) with 0.1 nM of the synthetic androgen R1881 and increasing concentrations (0-100 μM) of compound.
After 5 days, the cells were plated into a 96-well plate (35,000 cells/well) with 0.1 nM R1881 and increasing concentrations (0-100 μM) of compound.
In this assay, the expression of eGFP is under the control of an androgen responsive probasin-derived promoter and can quantify AR transcriptional activity.
On to `CC1(C)c2ccccc2NC1c1c[nH]c2c(F)cccc12` (centres unmarked) [Compound 13555], for which the “eGFP IC50” value is given as “Inactive”.
`CC1(C)c2ccccc2NC1c1c[nH]c2c(C(=O)O)cccc12` (centres unmarked) [Compound 13557]: the “eGFP IC50” value is listed as “Inactive”.

The same assay, now with this note: LN-ARR2PBeGFP LNCaP cells, 0.1 nM R1881, 3 days incubation; read-out: eGFP IC50.
In the case of `Cc1[nH]c2ccccc2c1SCc1ccccc1F` [Compound 13224], the IC50 was 5 µM.
The same measure, in the same setting: the same measure for `N#Cc1cn(CCCOc2ccccc2Cl)c2ccccc12` [Compound 13232]: 10 µM.
The same measure, in the same setting: the same measure for `S=C(c1c[nH]c2ccccc12)N1CCOCC1` [Compound 13243]: 3.9 µM; for `C(=C(c1ccccc1)c1ccccc1)c1c[nH]c2ccccc12` [Compound 13250]: 4.7 µM; for `Cc1ccc(/N=N/c2c[nH]c3ccccc23)cc1` [Compound 13257]: 4.2 µM.
As for `c1ccc(-c2ccccc2/N=N/c2c[nH]c3ccccc23)cc1` [Compound 13258], the IC50 is 6.8 µM.
As for `Cc1cccc2c1CCN2c1nc2ccccc2o1` [Compound 13260], the IC50 amounted to 2.7 µM.
Turning to `C[C@@H]1Cc2ccccc2N1c1nc2ccccc2o1` [Compound 13261], the IC50 stood at 2.1 µM.
The same measure, in the same setting: the figure for `FC(F)(F)c1cccc(/N=C/c2c[nH]c3ccccc23)c1` [Compound 13303] is 4.5 µM; for `Cc1ccc(/N=C/c2c[nH]c3ccccc23)cc1C` [Compound 13310] it is 10.3 µM.
`Brc1ccc2c(c1)NC(c1c[nH]c3ccc(Br)cc13)C2` (centres unmarked) [Compound 13502]: the IC50 was found to be 4.1 µM.
The same measure, in the same setting: the figure for `Brc1ccc2c(c1)CC(c1c[nH]c3ccc(Br)cc13)N2` (centres unmarked) [Compound 13503] is 4.5 µM.
The same measure, in the same setting: the same measure for `Cn1c(-c2c[nH]c3ccccc23)cc2ccccc21` [Compound 13505]: 3.4 µM; for `CC1(C)c2cc(Br)ccc2NC1c1c[nH]c2ccc(Br)cc12` (centres unmarked) [Compound 13512]: 6 µM; for `Cn1cc(C2Nc3ccccc3C2(C)C)c2ccccc21` (centres unmarked) [Compound 13516]: 3.6 µM.
Consider `CC1(C)c2ccccc2NC1c1c[nH]c2ccc(N)cc12` (centres unmarked) [Compound 13538], for which the IC50 was found to be 7.7 µM.
On the same count and under the same terms, the figure for `Brc1ccc2[nH]c(-c3nc4ccccc4s3)cc2c1` [Compound 13540] is 2.5 µM; for `CC1(C)c2cc(Br)ccc2NC1c1c[nH]c2cc(O)ccc12` (centres unmarked) [Compound 13542] it is 5.7 µM; for `CC1(C)c2ccccc2NC1c1c[nH]c2cc(OCc3ccccc3)ccc12` (centres unmarked) [Compound 13544] it is 11.4 µM.
Still for that read-out and setting: the figure for `c1ccc(COc2ccc3c(C4Nc5ccccc5C45CCCCC5)c[nH]c3c2)cc1` (centres unmarked) [Compound 13550] is 11.8 µM; for `Oc1ccc2c(C3Nc4ccccc4C34CCCCC4)c[nH]c2c1` (centres unmarked) [Compound 13551] it is 15.5 µM.
Consider `c1ccc2c(c1)N=C(c1c[nH]c3cnccc13)C21CCCCC1` [Compound 13559], for which the IC50 was 6.6 µM.
Take `CC1(C)c2ccccc2NC1c1c[nH]c2cnccc12` (centres unmarked) [Compound 13561]: the IC50 came to 10.7 µM.
On the same count and under the same terms, the same measure for `Fc1cccc2c(-c3ccc4ccccc4n3)c[nH]c12` [Compound 13569]: 1.6 µM.
As to `Cc1[nH]c2ccccc2c1-c1ccc2ccccc2n1` [Compound 13570], the IC50 worked out at 20 µM.
As to `Cn1cc(-c2ccc3ccccc3n2)c2ccccc21` [Compound 13571], the IC50 was 1.1 µM.
The same measure, in the same setting: the same measure for `Cc1cccc2c(-c3ccc4cc(F)ccc4n3)c[nH]c12` [Compound 13573]: 0.56 µM.
The same measure, in the same setting: the figure for `Cc1ccc2c(-c3ccc4ccccc4n3)c[nH]c2c1` [Compound 13574] is 2.57 µM; for `FC(F)(F)c1ccc2c(-c3ccc4ccccc4n3)c[nH]c2c1` [Compound 13580] it is 2.9 µM; for `c1ccc(COc2ccc3c(-c4ccc5ccccc5n4)c[nH]c3c2)cc1` [Compound 13589] it is 5.3 µM.
Same read-out and setting: the figure for `Clc1ccc(Cl)c2c(-c3ccc4ccccc4n3)c[nH]c12` [Compound 13640] is 12.7 µM.
Take `Cc1cccc2c(-c3ccc4nccnc4n3)c[nH]c12` [Compound 13644]: the IC50 was 3 µM.
Consider `Cc1ccc(F)c2c(-c3ccc4ccccc4n3)c[nH]c12` [Compound 13650], for which the IC50 was 1.63 µM.
Still for that read-out and setting: the same measure for `Fc1cc2[nH]cc(-c3ccc4cccc(F)c4n3)c2cc1F` [Compound 13651]: 0.404 µM; for `Cc1cccc2c(-c3ccc4c(CO)cccc4n3)c[nH]c12` [Compound 13680]: 0.8 µM; for `CNC(=O)c1cccc2nc(-c3c[nH]c4c(F)cccc34)ccc12` [Compound 13713]: 0.037 µM.
Still for that read-out and setting: the figure for `N#Cc1cc(F)cc2c(-c3ccc4cccc(Cl)c4n3)c[nH]c12` [Compound 13732] is 0.42 µM.
Regarding `CNC(=O)c1cccc2nc(-c3c[nH]c4c(N5CCOCC5)c(F)c(F)cc34)ccc12` [Compound 13775], the concentration for half-maximal inhibition (IC50) worked out at 3.7 µM.
As for `Cc1cccc2c(-c3ccc4c(-c5cncs5)cccc4n3)c[nH]c12` [Compound 13782], the IC50 was found to be 0.11 µM.
As to `N#Cc1cccc2c(-c3ccc4cccc(Cl)c4n3)c[nH]c12` [Compound 13785], the concentration for half-maximal inhibition (IC50) came out at 0.036 µM.
Same read-out and setting: the same measure for `N#Cc1cccc2c(-c3ccc4ccc(F)cc4n3)c[nH]c12` [Compound 13786]: 0.013 µM; for `Cc1c(F)ccc2c(-c3ccc4cccc(Br)c4n3)c[nH]c12` [Compound 13787]: 0.19 µM.

For the next assay, the system named is PSA. In words: Prostate Surface Antigen (PSA) assay, PSA excreted into the media. The following applies: Homo sapiens, 72 h, PSA excreted into media, same plates as eGFP assay, 3 days incubation; read-out: PSA IC50. The class given is cell-based, human. How it is done:
The evaluation of PSA excreted into the media was performed in parallel to the eGFP assay using the same plates (see above description). After the cells were incubated for 3 days 150 μl of the media was taken from each well, and added to 150 μl of PBS.
As to `Cc1ccc(/N=C/c2c[nH]c3ccccc23)cc1` [Compound 13247], the IC50 stood at 0.43 µM.
On the same count and under the same terms, the figure for `Cc1cccc2c(-c3ccc4ccccc4n3)c[nH]c12` [Compound 13566] is 0.011 µM; for `Cc1cccc2c(-c3ccc4cccc(Cl)c4n3)c[nH]c12` [Compound 13593] it is 0.13 µM.
The same measure, in the same setting: the same measure for `CNC(=O)c1cccc2nc(-c3c[nH]c4c(C)cccc34)ccc12` [Compound 13597]: 0.132 µM; for `Cc1cc(F)cc2c(-c3ccc4ccccc4n3)c[nH]c12` [Compound 13601]: 0.165 µM.
On the same count and under the same terms, the same measure for `Cc1cccc2c(-c3ccc4c(C(F)(F)F)cccc4n3)c[nH]c12` [Compound 13602]: 0.182 µM; for `Cc1cccc2c(-c3ccc4ccc(Cl)cc4n3)c[nH]c12` [Compound 13606]: 1.43 µM; for `Cc1c(F)ccc2c(-c3ccc4ccccc4n3)c[nH]c12` [Compound 13607]: 0.087 µM.
Turning to `Fc1cc(F)c2[nH]cc(-c3ccc4ccccc4n3)c2c1` [Compound 13610], the IC50 turned out to be 0.013 µM.
Still for that read-out and setting: the figure for `Cc1cccc2c(-c3ccc4ccc(F)cc4n3)c[nH]c12` [Compound 13611] is 0.121 µM; for `Fc1ccc2c(-c3ccc4ccccc4n3)c[nH]c2c1F` [Compound 13618] it is 0.13 µM.
Still for that read-out and setting: the same measure for `Clc1cccc2c(-c3ccc4ccccc4n3)c[nH]c12` [Compound 13622]: 0.075 µM; for `Fc1cc(Cl)c2[nH]cc(-c3ccc4ccccc4n3)c2c1` [Compound 13624]: 0.042 µM.
The same measure, in the same setting: the figure for `Cc1cc(Cl)c2[nH]cc(-c3ccc4ccccc4n3)c2c1` [Compound 13625] is 1.23 µM.
Take `Clc1cc(Cl)c2[nH]cc(-c3ccc4ccccc4n3)c2c1` [Compound 13627]: the IC50 was determined as 1.16 µM.
Same read-out and setting: the figure for `Fc1cc(Cl)cc2c(-c3ccc4ccccc4n3)c[nH]c12` [Compound 13641] is 0.403 µM; for `Fc1ccc2c(-c3ccc4ccccc4n3)c[nH]c2c1Cl` [Compound 13642] it is 0.025 µM.
Regarding `Cc1cccc2c(-c3cnc4ccccc4c3)c[nH]c12` [Compound 13643], the IC50 is 0.156 µM.

The assay is the same for the next values; noted with them: Homo sapiens, 72 h, read-out: IC50 (PSA).
Regarding `Cc1cccc2c(-c3ccc4ccccc4n3)c[nH]c12` [13 566], the IC50 was found to be 0.056 µM.

Still in this assay, the particulars now being: Homo sapiens, 72 h, same plates as eGFP assay, media after 3 days; read-out: IC50 (PSA).
Consider `Cc1cccc2c(-c3ccc4cccc(Br)c4n3)c[nH]c12` [13 677], for which the half-inhibitory concentration (IC50) is 0.11 µM.

Staying with this assay, now noted: same plates as eGFP assay, media after 3 days.
On to `c1ccc(-c2nc3ccccc3[nH]2)cc1` [13 686], for which the “IC50 (PSA)” value is reported as “IC50 (PSA) = Inactive”.
